According to patent publication US7772197B2, “1,3,5-triazines for treatment of viral diseases” (1,3,5-Triazines for Treatment of Viral Diseases, priority 2002, dated 2010):

Tests used:
HIV [1] = experiment: In vitro passaging assay of DHAdC; assay type: cell-based; conditions: 100 nM, quadruplicate
Method: 0.1 ml of a 3×10^5 cells/ml MT-2 cell suspension were seeded in 96-well plates at 3×10^4 cells/well. The compounds to be assayed were diluted in a separate 96-well at ten times (10×) the concentration needed for the screen. […] This was followed by the addition of HIV-1 at an MOI of 0.01, except for the three wells serving as the uninfected control. 0.1 ml of cRPMI was added to the uninfected well instead of virus. After the addition of virus, the 96-well plate was centrifuged at 1,200×g for two hours to enhance the adsorption of the virus by the MT-2 cells (see, e.g., O'Doherty, J. Virol. 74:10074-10080 (2000)). After the centrifugation step, the 96-well plate was then incubated in a 37° C. incubator containing 5% CO2 for three days. At the end of this time period the virus and cells were mixed by gentle pipetting followed by a 1 minute spin at 600×g to pellet the cells. The supernatant of each well was then serially diluted 1,000-fold into new 96-well plates to serve as inoculum for the next passage and assayed by ELISA for the amount of p24 produced. The next passage was performed as described above, except that the virus used to infect the cells was derived from the 1,000-fold dilution plate. […]

mitochondrial DNA = experiment: Mitochondrial toxicity (lactate production, mitochondrial DNA); assay type: cell-based; conditions: highest dose tested, 320 μM, data not shown
Method: Mitochondrial toxicity is also a safety concern with nucleoside analogs. SN1212 was also analyzed for mitochondrial toxicity. […] (Data not shown.)

HIV [2] = experiment: HIV infected SCID-Hu mice; assay type: in vivo
Method: After completion of this toxicology experiment, SN1212 was tested in HIV infected SCID-Hu mice. […] The discordance between viral infectivity and conventional surrogate markers of viral load, such as p24 or HIV RNA, is not surprising, as it has also been observed in vitro, and reflects the increased proportion of non-infectious viral particles in the presence of SN1212. It is also interesting to note that, of the treated groups, the immunologic profile of the SN1212 groups most closely resemble that of the uninfected group. This is compatible with the finding that infection with less “fit” viruses provides a relative clinical benefit by preserving cellular immunity.

HIV-1 LAI-M184V = experiment: Sensitivity of NRTI-resistant HIV strain M184V, MT-2 cells; assay type: cell-based; conditions: Human immunodeficiency virus 1, MT2
Method: 0.1 ml of a 3×10^5 cells/ml MT-2 cell suspension were seeded in 96-well plates at 3×10^4 cells/well. The compounds to be assayed were diluted in a separate 96-well at ten times (10×) the concentration needed for the screen. 22 μl of the 10× compounds was then added to the wells in triplicate except for six control wells, containing uninfected MT-2 cells alone (3 wells) and untreated HIV-infected MT-2 cells (3 wells). This was followed by the addition of HIV-1 at an MOI of 0.01, except for the three wells serving as the uninfected control. 0.1 ml of cRPMI was added to the uninfected well instead of virus. After the addition of virus, the 96-well plate was centrifuged at 1,200×g for two hours to enhance the adsorption of the virus by the MT-2 cells (see, e.g., O'Doherty, J. Virol. 74:10074-10080 (2000)). After the centrifugation step, the 96-well plate was then incubated in a 37° C. incubator containing 5% CO2 for three days. At the end of this time period the virus and cells were mixed by gentle pipetting followed by a 1 minute spin at 600×g to pellet the cells. The supernatant of each well was then serially diluted 1,000-fold into new 96-well plates to serve as inoculum for the next passage and assayed by ELISA for the amount of p24 produced. The next passage was performed as described above, except that the virus used to infect the cells was derived from the 1,000-fold dilution plate.
To determine if there is resistance of HIV NRTI resistant strains to mutagenic nucleoside analogues, NRTI resistant strains were grown in the presence of 5-aza-dC to determine whether the EC50 for 5-aza-dC is different from the WT strain (HIV-1 LAI). […] Growth of HIV NRTI resistant strains in the presence of the appropriate concentration of NRTI was used as a positive control.
Three HIV NRTI resistant strains (HIV-1 LAI-M184V, HIV-1 RTMDR1, with 74V, 41L, 106A and 215Y mutations, and HIV-1 RTMC, with 67N, 70R, 215F and 219Q mutations) were used to test the effectiveness of 5-aza-dC. […] Mutations include: M41L, E44D, A62V, K65R, D67N, T69DN, T69S_SS, K70R, L74V, V75I, F77L, Y115F, F116Y, V118I, Q151M, M184V, L210W, T215F and K219QE.
The effectiveness of DHAdC was tested against wild-type HIV strains and NRTI resistant HIV strains as described in Example 2. The following strains were tested: HIV-1 LAI, wild-type; HIV-I LAI-M184V-M184V mutation with resistance to lamivudine (3TC); HIV-1 RTMDR1-74V, 41L, 106A and 215Y mutations with resistance to zidovudine, didanosine, nevirapine and other non-nucleoside reverse transcriptase inhibitors; and HIV-1 RTMC-67N, 70R, 215F and 219Q with resistance to zidovudine.

NC1=NC(=O)N([C@H]2C[C@H](O)[C@@H](CO)O2)CN1 [DHAdC, 1-(2-Deoxy-β-D-ribofuranosyl)-4-amino-1,2,5,6-tetrahydro-1,3,5-triazin-2-one]
passage after which no infectious virus was recovered (HIV [1]): 12 passage | passage by which p24 fell permanently below the limit of detection (4 ng/ml) (HIV [1]): ≤ 8 passage | mitochondrial toxicity (increase in lactate production or inhibition of mitochondrial DNA) (mitochondrial DNA): does not demonstrate evidence of mitochondrial toxicity | CD4+ (HIV [2]; 10 mg/kg/day): 13% | CD4+ CD8+ (HIV [2]; 10 mg/kg/day): 70% | CD8+ (HIV [2]; 10 mg/kg/day): 9.5% | HIV-1 RNA (HIV [2]; 10 mg/kg/day): 5.3 log copies/10^6 cells | p24 (HIV [2]; 10 mg/kg/day): 510 pg/10^6 cells | Viral liter (HIV [2]; 10 mg/kg/day, ** p < 0.05): 15.2** viruses/10^6 cells | CD4+ (HIV [2]; 100 mg/kg/day): 10% | CD4+ CD8+ (HIV [2]; 100 mg/kg/day): 63% | CD8+ (HIV [2]; 100 mg/kg/day): 11% | HIV-1 RNA (HIV [2]; 100 mg/kg/day): 5.1 log copies/10^6 cells | Viral liter (HIV [2]; 100 mg/kg/day): 24.9 viruses/10^6 cells | p24 (HIV [2]; 100 mg/kg/day): 570 pg/10^6 cells | EC50 (HIV-1 LAI-M184V): 6 µM
